Data taken from patent publication US9822068B2, “Inhibitors of fatty acid amide hydrolase (FAAH) enzyme with improved oral bioavailability and their use as medicaments” (THE REGENTS OF THE UNIVERSITY OF CALIFORNIA, priority 2014, dated 2017).
Converted amounts (≈) assume the structure as drawn. Like-named read-outs stand apart in the source and are kept apart here.

Columns and labels:
[1] = Aqueous kinetic solubility assay; format: physicochemical; conditions: phosphate buffered saline, aqueous buffer, kinetic from dmso stock, PBS pH 7.4, target 250 μM, 2.5% DMSO, 25° C.
Method: Aqueous Kinetic Solubility Assay
The aqueous kinetic solubility was determined from a 10 mM DMSO stock solution of test compound in Phosphate Buffered Saline (PBS) at pH 7.4.
The study was performed by incubation of an aliquot of 10 mM DMSO stock solution in PBS (pH 7.4) at a target concentration of 250 μM resulting in a final concentration of 2.5% DMSO. The incubation was carried out under shaking at 25° C. for 24 h followed by centrifugation. The supernatant was analyzed by UPLC/MS for the quantification of dissolved compound by UV at a specific wavelength (215 nm).
The aqueous kinetic solubility (in μM) was calculated by dividing the peak area of the supernatant by the peak area of the test compound reference and further multiplied by the concentration of the test compound reference and dilution factor.
The UPLC/MS analyses were performed on a Waters ACQUITY UPLC/MS system consisting of a SQD (Single Quadrupole Detector) Mass Spectrometer equipped with an Electrospray Ionization interface and a Photodiode Array Detector. The PDA range was 210-400 nm. The analyses were run on an ACQUITY UPLC BEH C18 column (50×2.1 mmID, particle size 1.7 m) with a VanGuard BEH C18 pre-column (5×2.1 mmID, particle size 1.7 μm). The mobile phase was 10 mM NH4OAc in H2O at pH 5 adjusted with AcOH (A) and 10 mM NH4OAc in MeCN—H2O (95:5) at pH 5 (B). Electrospray ionization in positive and negative mode was applied in the mass scan range 100-500 Da.

human FAAH-1 = human FAAH-1 (Homo sapiens (Human), UniProt O00519); assay: In vitro human FAAH fluorescent assay; format: biochemical; conditions: human FAAH-1 membrane preparation from HEK-293, 50 min pre-incubation at 37° C.; read-out: h-FAAH IC50
Chain of human FAAH-1 (O00519 whole entry): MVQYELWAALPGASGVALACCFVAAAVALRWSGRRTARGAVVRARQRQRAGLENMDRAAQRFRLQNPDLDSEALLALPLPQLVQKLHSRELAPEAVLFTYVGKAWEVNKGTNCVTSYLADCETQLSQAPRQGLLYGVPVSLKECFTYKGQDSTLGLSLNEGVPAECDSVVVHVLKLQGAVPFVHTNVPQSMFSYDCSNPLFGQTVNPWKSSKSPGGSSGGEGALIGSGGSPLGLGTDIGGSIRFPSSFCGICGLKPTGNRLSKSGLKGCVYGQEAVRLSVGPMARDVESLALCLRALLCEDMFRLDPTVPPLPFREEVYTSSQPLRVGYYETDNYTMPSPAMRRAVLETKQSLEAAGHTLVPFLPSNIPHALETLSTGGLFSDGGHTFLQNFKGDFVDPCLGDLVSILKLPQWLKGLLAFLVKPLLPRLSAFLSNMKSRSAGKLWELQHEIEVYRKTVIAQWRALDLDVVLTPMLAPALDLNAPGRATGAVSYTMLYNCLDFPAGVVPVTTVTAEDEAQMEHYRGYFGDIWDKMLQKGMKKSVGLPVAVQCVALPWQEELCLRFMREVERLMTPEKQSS
Method: In Vitro Human FAAH Fluorescent Assay
Human recombinant FAAH was obtained from a HEK-293 cell line stably overexpressing human FAAH-1 enzyme. Cells were grown in Dulbecco's Modified Eagle Medium (DMEM) medium containing 10% FBS, 1% pen/strep, 1% glutamine and 500 μg/mL G418. To obtain membrane preparation cells were scraped off with cold PBS and collected by centrifugation (500×g, 10 min, 4° C.); the cell pellet was re-suspended in 20 mM Tris-HCl pH 7.4, 0.32M sucrose, disrupted by sonication (10 pulses, 5 times) and centrifuged (800×g, 15 min, 4° C.); the collected supernatant was centrifuged at 105,000×g for 1 h at 4° C. and the pellet was re-suspended in PBS.
The fluorescent assay to measure FAAH activity was performed in 96 wells black plates: 2.5 μg of human FAAH-1 membrane preparation were pre-incubated for 50 min at 37° C., in 180 µL of assay buffer (50 mM TrisHCl pH 7.4, 0.05% Fatty acid-free-BSA) with 10 μL of inhibitor (at appropriate concentration in DMSO) or 10 μL DMSO to measure FAAH total activity. The background (no activity) samples were prepared using 180 μL of assay buffer without human FAAH-1 and 10 μL of DMSO. The reaction was then started by the addition of 10 μL of a 40 μM substrate solution (N. 10005098, Cayman Chemical) dissolved in ethanol, and used at a final concentration of 2 μM. The reaction was carried out for 30 min at 37° C. and fluorescence was measured with a Tecan Infinite M200 nanoquant plate reader (excitation wavelength 350 nm/emission wavelength 460 nm).
(§1) Concentrations causing half-maximal inhibition of FAAH, IC50 values, were determined by non-linear regression analysis of the Log [concentration]/response curves generated with mean replicate values using a four parameter Hill equation curve fitting with GraphPad Prism 5 (GraphPad Software Inc., CA—USA).

[2] = Pharmacokinetic experiment in cannulated Sprague-Dawley rats (PO and IV); format: in vivo; conditions: plasma, rat; for bioavailability: PO 10 mg/kg vs IV 3 mg/kg, read-out: Oral bioavailability (F %)
Method: Pharmacokinetic Experiment and Analysis
Compounds were administered orally (PO) and intravenously (IV) to cannulated Sprague-Dawley rats at 10 and 3 mg/kg, respectively. Vehicle was: PEG400/Tween 80/Saline solution at 10/10/80 (% in volume), respectively. Three animals per dose were treated. Blood samples at 0, 15, 30, 60, 120, 240, 480 and 1440 min after administration were collected for PO arm. Blood samples at 0, 5, 15, 30, 60, 120 and 240 min after administration were collected for IV arm. Plasma was separated from blood by centrifugation for 15 min at 3500 rpm a 4° C., collected in a Eppendorf tube and frozen (−80° C.). Control animals treated with vehicle only were also included in the experimental protocol.
Preparation of Samples, Standard Curve and QC Samples for UPLC-MS Analysis
Samples were thawed in an ice bath and after a short centrifugation transferred (50 μL) into a 96-deepwell plate and added with 150 μL of acetonitrile spiked with 200 nM Warfarin (the Internal Standard, I.S.). After agitation (3 min) the plate was centrifuged at 3000 g for 10 min at 4° C. 80 μL of supernatant was then transferred in a 96-well plate and added with 80 μL of water. Standard compound was spiked in neat solvent (PBS pH 7.4 added with 10% acetonitrile) to prepare a calibration curve over the 1 nM-10 μM range. Three quality controls (QCs) samples were also prepared spiking the compound in blank rat plasma to final 20, 200 and 2000 nM concentrations. Calibrators and QCs were crashed with acetonitrile spiked with the I.S. as described for the plasma samples. Dosing solutions, previously diluted 2000 fold in the neat solvent were also included in the samples and tested.
Compounds plasma levels were monitored on a Xevo TQ UPLC-MS/MS system (Waters, Milford USA), using the calibration curve and the internal standard (Warfarin). Chromatography was carried out on a Acquity BEH C18 column (2.1×50 mmID, 1.7 m particle size, Waters, Milford USA). Flow rate was 0.5 mL/min. The mobile phase was (A) H2O/0.1% formic acid; (B) MeCN/0.1% formic acid. A linear gradient was applied from 5 to 100% B in 2 min. 3 μL of each sample were loaded on column. MS parameters and multiple reaction monitoring (MRM) transitions were carefully tuned for each compound. Plasma levels data were analyzed using PKSolutions excel application (Summit Research Service, USA) to derive the most important pharmacokinetic parameters.
The oral bioavailability (F %) data, and the Area Under the Curve (AUC) data (ng×min/mL) corresponding to the IV (3 mg/kg) and PO (10 mg/kg) dose of selected compounds described in the Examples are reported in Table 3. Their F % data are in the range from 35 to 87.

Rat FAAH = Rat FAAH (Rattus norvegicus (Rat), UniProt P97612); assay: In vitro rat FAAH radiometric assay; format: biochemical; conditions: rat brain homogenate, 10 min pre-incubation at 37° C.; read-out: r-FAAH IC50
Chain of Rat FAAH (P97612 whole entry): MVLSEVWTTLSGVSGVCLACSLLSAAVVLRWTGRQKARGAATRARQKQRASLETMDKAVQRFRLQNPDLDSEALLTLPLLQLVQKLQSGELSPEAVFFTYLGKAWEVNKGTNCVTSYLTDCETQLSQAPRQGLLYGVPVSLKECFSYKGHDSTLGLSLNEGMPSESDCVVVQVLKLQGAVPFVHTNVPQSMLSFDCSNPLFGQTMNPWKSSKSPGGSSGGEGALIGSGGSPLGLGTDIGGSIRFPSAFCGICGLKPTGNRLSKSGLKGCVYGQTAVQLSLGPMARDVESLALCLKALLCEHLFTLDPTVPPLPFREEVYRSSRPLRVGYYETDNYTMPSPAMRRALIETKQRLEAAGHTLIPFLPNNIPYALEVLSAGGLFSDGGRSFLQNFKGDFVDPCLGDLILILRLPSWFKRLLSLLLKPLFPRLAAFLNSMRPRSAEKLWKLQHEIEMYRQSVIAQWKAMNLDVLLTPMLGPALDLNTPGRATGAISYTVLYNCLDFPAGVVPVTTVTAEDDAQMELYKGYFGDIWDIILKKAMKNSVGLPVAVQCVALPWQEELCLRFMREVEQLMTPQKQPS
Method: In Vitro Rat FAAH Radiometric Assay
Rat FAAH was prepared from male Sprague Dawley rat brains, homogenized in a potter in 20 mM of Tris HCl pH 7.4, 0.32 M sucrose.
The radiometric assay used to measure FAAH activity was performed in Eppendorf tubes: 50 μg of total rat brain homogenate were pre-incubated in 445.5 μL of assay buffer (50 mM Tris-HCl pH 7.4, 0.05% Fatty acid-free-bovine serum albumin (BSA)) with 4.5 μL of inhibitor (at appropriate concentration in DMSO) or DMSO alone (to measure FAAH total activity) for 10 min at 37° C. The blank (no activity control) was prepared using 445.5 μL of assay buffer and 4.5 μL of DMSO without the 50 μg of total rat brain homogenate.
After 10 min of pre-incubation with test compounds, the reaction was started by adding of 50 μL of substrate and incubating for 30 min at 37° C. The substrate was prepared in assay buffer in order to achieve the final concentration of 1 μM arachidonoyl ethanolamide (Cayman Chemical N. 90050) and 0.6 nM anandamide [ethanolamine-1-^3H] (American Radiolabeled Chemicals Inc, ART. 0626, Conc. 1 mCi/mL, S.A. 60 Ci/mmol). The reaction was stopped by adding cold 1:1 CHCl3/MeOH. After 10 min of centrifugation (845×g at 4° C.) 600 μL of aqueous phase were transferred into scintillation vials previously filled with 3 mL of scintillation fluid (Ultima Gold™, Perkin Elmer Inc., Cat. 6013329). Radioactivity was measured by liquid scintillation counting (MicroBeta2 LumiJET Perkin Elmer Inc.).
as §1

[3] = IV, 3 mg/kg, read-out: AUC IV (3 mg/kg) (converted)
[4] = PO, 10 mg/kg, read-out: AUC PO (10 mg/kg) (converted)

| SMILES | solubility kinetic at 24 h [1] [µM] | IC50 (human FAAH-1) [nM] | bioavailability [2] [%] | AUC [2, 3] [ng·h/mL] | AUC [2, 4] [ng·h/mL] | IC50 (Rat FAAH) [nM] |
| --- | --- | --- | --- | --- | --- | --- |
| NC(=O)c1cccc(-c2cc(OC(=O)NC3CCCCC3)ccc2OC(F)F)c1 [Example 8, [3-(3-carbamoylphenyl)-4-(difluoromethoxy)phenyl] N-cyclohexylcarbamate] | 44 (≈ 17.8 µg/mL) | 8.2 | 35 | 2110 | 2430 | 1.4 |
| CNC(=O)c1cccc(-c2cc(OC(=O)NC3CCCCC3)ccc2OC(F)F)c1 [Example 9, [4-(difluoromethoxy)-3-[3-(methylcarbamoyl)phenyl]phenyl] N-cyclohexyl carbamate] | 8 (≈ 3.35 µg/mL) | 12 | 53 | 1390 | 2480 | 3.5 |
